# Measured values reported in article PMC10839021, “Pharmacological effects of monoterpene carveol on the neuromuscular system of nematodes and mammals” (Frontiers in Pharmacology, 2024).
# Molecular target: T1, A. suum ACR-16 nAChR (Asu-ACR-16, homomeric nicotinic acetylcholine receptor) (Ascaris suum, UniProt A0A0K0QSL7)
# T1 construct: homomeric receptor expressed from Asu-ACR-16 cRNA in Xenopus laevis oocytes
# Experiment: two-electrode voltage-clamp in Xenopus oocytes, agonist concentration-response
# Assay type: cell-based
# T1 sequence (A0A0K0QSL7 entry or part of it): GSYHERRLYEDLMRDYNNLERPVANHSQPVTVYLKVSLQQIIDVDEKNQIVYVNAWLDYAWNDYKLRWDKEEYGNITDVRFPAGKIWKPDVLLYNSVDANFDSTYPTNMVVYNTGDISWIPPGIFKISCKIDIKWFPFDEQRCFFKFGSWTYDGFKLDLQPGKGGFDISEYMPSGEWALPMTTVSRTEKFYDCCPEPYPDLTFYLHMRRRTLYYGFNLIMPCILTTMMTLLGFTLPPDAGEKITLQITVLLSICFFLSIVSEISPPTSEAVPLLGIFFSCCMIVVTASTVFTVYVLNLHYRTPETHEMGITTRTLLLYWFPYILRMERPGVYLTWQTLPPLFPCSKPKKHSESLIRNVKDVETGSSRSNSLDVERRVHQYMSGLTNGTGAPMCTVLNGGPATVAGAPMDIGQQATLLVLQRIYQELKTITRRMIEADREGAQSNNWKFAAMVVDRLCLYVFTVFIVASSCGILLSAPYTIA
compound,measurement,value
CC(=O)OCC[N+](C)(C)C [acetylcholine],EC50,4.9 ± 1.2 µM
